The record followed here is patent US10987317B2, “Inhibition of glutaminase C” (Cornell University, priority 2009, dated 2021).

“Also recorded” adds a separate entry of the source.

Assay [1] relates to HMECs. Put plainly: Growth of normal mammary epithelial cells. The assay is classed as cell-based, human. The following applies: 10 μM, 6 days.
Assay [2] concerns SKBR3 cells. Briefly: Breast cancer cell soft agar colony formation and growth. The assay is classed as cell-based, human. The method, then:
(§1) FIGS. 2A-G illustrate effects of 968 on the transforming activity of constitutively active Rho GTPases and human breast cancer cells. […] Cells are scored after 14 days and plotted as the percentage of the total number of colonies greater than […] in diameter. Data represent the average of 3 experiments (±s.d.). […] Data represent the average of 3 experiments (±s.d.). […] Data represent the average of 3 experiments (±s.d.). […] After 24 hours at 37° C. the migratory cells are fixed, stained with GIEMSA, and counted. Data represent the average of 3 experiments (±s.d.). […] Data represent the average of 3 experiments (±s.d.). […] Data represent the average of 3 experiments (±s.d.). […] Data represent the average of 3 experiments (±s.d.).
100%=620 moles of glutamine hydrolyzed per minute per mole of enzyme. Data represent the average of 3 experiments (±s.d.). […] Following precipitation of the beads and re-suspension, the samples are analyzed by Western blotting with anti-V5 antibody. […] Data represent the average of 3 experiments (±s.d.). […] Data represent the average of 3 experiments (±s.d.). […] Data represent the average of 3 experiments (±s.d.). FIG. 3E NIH 3T3 cells transiently expressing Dbl are assayed for focus formation in the presence of 10 μM 968 alone or together with […] dimethyl α-ketoglutarate. […] 100%=680 nM glutamine hydrolyzed per minute per 10^5 cells. Data are the average of 3 experiments (=s.d.). […] 100%=750 nM glutamine hydrolyzed per minute per 10^5 cells. Data represent the average of 3 experiments (±s.d.).

Assay [3] relates to NIH 3T3 cells stably expressing Cdc42(F28L) and transiently expressing GAC. Put plainly: Focus formation by Cdc42(F28L) plus GAC. The assay is classed as cell-based. The text has this: FIGS. 4A-E illustrate the role of glutaminase C activity in cellular transformation. […] Data represent the average of 3 experiments (±s.d.). […] Data represent the average of 3 experiments (±s.d.). […] 100% represents the activity measured in untreated Dbl-transformed cells. The data represent the average of 2 experiments. […] 100% represents the activity measured in untreated SKBR3 cells. The data represent the average of 2 experiments. […] Data represent the average of 3 experiments (±s.d.).

The subject of assay [4] is NIH 3T3 cells transfected with oncogenic Dbl. Briefly: Dbl-induced cellular transformation (focus-forming assays, growth in low serum, soft agar). Format: cell-based. The method, then: (§2) FIGS. 1A-E illustrate that the small molecule 968 inhibiting cellular transformation. […] Cells were fixed and stained with crystal violet for counting of foci. Right: 968 was serially diluted (10, 5, 2.5, and 1.25 μM) and evaluated for its ability to inhibit focus formation. […] After 6 days, the cells are counted. 100% represents the number of Dbl-transformed cells counted in the absence of 968 (27.5×10^4 cells). Data represent the average of 3 experiments (±s.d.). […] At the indicated times, the cells are counted. Data represent the average of 3 experiments (±s.d.).
as §1
FIGS. 5A-C illustrate comparative abilities of 968 and other benzo[a]phenanthrldinones to inhibit the transforming activity of oncogenic Dbl and H-Ras. […] Histograms show the relative levels of Dbl-induced focus formation for the different treatments, compared to Dbl-induced focus formation measured in the presence of DMSO (i.e. solvent control). Data represent the average of 3 experiments (mean±s.d.). […] Histograms show the relative levels of Ras(G12V)-induced focus formation measured for the different treatments, compared to Ras(G12V)-induced focus formation measured in the presence of DMSO (solvent control). Data represent the average of 3 experiments (mean±s.d.). FIG. 5C NIH 3T3 cells stably expressing H-Ras(G12V) that are cultured in DMEM supplemented with 1% calf serum, with the indicated amounts of 968. After 6 days, cells are trypsinized and counted. 100% represents the number of cells counted in the absence of 968, i.e. 26×10^4 cells. Data represent the average of 3 experiments (mean±s.d.).

Assay [5] concerns the target T1, V5-tagged GAC in NIH 3T3 cells stably expressing Dbl (Mus musculus, UniProt D3Z7P3).
T1 construct: expressed in transfected cells; host or cells: NIH 3T3 cells stably expressing oncogenic Dbl
T1 sequence (D3Z7P3 55-603 isoform D3Z7P3-2 limits assumed): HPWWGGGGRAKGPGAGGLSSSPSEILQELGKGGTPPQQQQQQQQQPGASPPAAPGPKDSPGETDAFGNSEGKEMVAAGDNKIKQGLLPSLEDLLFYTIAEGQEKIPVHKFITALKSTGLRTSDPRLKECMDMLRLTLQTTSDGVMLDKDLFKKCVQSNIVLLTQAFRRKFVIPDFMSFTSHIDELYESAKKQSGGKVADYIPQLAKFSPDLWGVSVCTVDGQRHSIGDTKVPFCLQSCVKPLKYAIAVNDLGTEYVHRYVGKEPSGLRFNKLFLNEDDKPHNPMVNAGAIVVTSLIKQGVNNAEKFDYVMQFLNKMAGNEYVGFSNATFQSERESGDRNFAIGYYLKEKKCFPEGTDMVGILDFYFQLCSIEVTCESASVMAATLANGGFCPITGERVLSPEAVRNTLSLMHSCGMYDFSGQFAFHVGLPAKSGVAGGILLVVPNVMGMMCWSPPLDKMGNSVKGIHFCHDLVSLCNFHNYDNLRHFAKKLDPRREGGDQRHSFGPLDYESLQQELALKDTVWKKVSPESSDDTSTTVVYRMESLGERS
Briefly: GAC phosphorylation by 2-D gel and Western blotting. The assay is classed as cell-based. The following applies: 10 μM for 48 hours. As for the experimental part:
NIH 3T3 cells stably expressing the Dbl oncogene, were transiently transfected with DNA encoding a VS-tagged GAC, and then one sample was treated with 968 (10 μM) for 48 hours. The cells were then harvested and the ectopically expressed GAC was isolated by immunoprecipitation via the V5 tag. The samples were then subjected to 2-D gel analysis to separate the V5-GAC by charge and size, and the V5-tagged GAC was visualized by Western blotting using an anti-V5 antibody. […] Since 968 inhibits the enzymatic activity of GAC, and the phosphorylation appears to be required for its basal enzyme activity, it appears that 968 might be functioning to inhibit glutaminase C by inhibiting the ability of at least one site on glutaminase C to become phosphorylated.

Assay [6] has as its system normal NIH 3T3 cells. Briefly: Growth and morphology of control cells. The assay is classed as cell-based. The following applies: 10% calf serum; 5-10 μM. As for the experimental part: as §2

For `CN(C)c1ccc(C2Nc3ccc4ccccc4c3C3=C2C(=O)CC(C)(C)C3)cc1Br` (stereo not shown) [Compound 968, 5-[3-bromo-4-(dimethylamino)phenyl]-2,2-dimethyl-2,3,5,6-tetrahydrobenzo[a]], the “growth of HMECs” value in assay [1] is recorded as “little effect”. Also, in assay [2] (10 μM), the “colony formation in soft agar” value was “inhibits”; the “growth to high density and in low serum” value is “inhibits”. Further, in assay [2] (growth in low serum, 10 μM 968 with 7 μM dimethyl α-ketoglutarate), the “reversal of 968-inhibition by cell-permeable analog of α-ketoglutarate” value was “circumvented”. Besides, in assay [3], the focus-forming activity result is “blocked”. The “Dbl-induced colony formation in soft agar” value in assay [4] (10 μM) is “blocked”. Moreover, the “reversal of 968-inhibition by cell-permeable analog of α-ketoglutarate” value in assay [4] (focus-formation, 10 μM 968 with 7 μM dimethyl α-ketoglutarate) is “circumvented”. For the same compound, in assay [4] (focus-forming assays or growth in low serum), the “concentration at which active in blocking Dbl-induced transformation” value is 1 to 10 µM. Further, the “phosphorylation state of GAC” value in assay [5] is reported as “significant reduction of at least one phosphorylation state”. For the same compound, the “effect on growth or morphology of normal NIH 3T3 cells” value in assay [6] is “no significant effects; also recorded: inability”.
